This note sets out measurements from publication PMC11093748, “De novo identification of CD4^+ T cell epitopes” (Nature Methods, 2024).

One experiment has as its system 5-4-E8 TCR. The experiment can be described thus: Single SABR-II co-incubation, NFAT-GFP Jurkat. The experiment is classed as cell-based, mouse. The conditions noted are these: I-Ad SABR-II; 18-20 h. An excerpt:
(§1) We have previously described SABRs, which are chimeric receptors containing an extracellular pMHC complex attached to an intracellular CD28-CD3ζ signaling domain. […] We sought to expand this platform to allow antigen discovery for MHC/HLA-II with seamless integration with class I alleles. Here, we created SABRs to present epitopes in MHC-II alleles, by covalently linking the epitope to the β-chain of MHC-II that is attached to the CD28-CD3ζ signaling domains downstream, along with a 2A peptide-linked MHC-II α-chain (Fig. 1a,b). To test whether SABR-IIs could present epitopes to TCRs and induce a signal, we expressed them using lentiviral vectors in NFAT–GFP Jurkat cells, which express green fluorescent protein (GFP) upon NFAT activation and translocation downstream of CD3ζ activation (a kind gift from Y. Chen and A. Weiss). We constructed murine SABR-IIs presenting epitopes in I-Ab, I-Ad and I-Ag7 (Ova, […][41]; ATEG, […][42]; and 2.5mimo, […][43], respectively). We co-incubated the SABR-II-expressing NFAT–GFP Jurkat cells with a separate population of Jurkat cells expressing either the BDC2.5 TCR (recognizes I-Ag7-2.5mimo), OT-II TCR (recognizes I-Ab-Ova), 5-4-E8 TCR (recognizes I-Ad-ATEG) or no TCR. […]

A further experiment has as its system OT-II TCR. The experiment can be described thus: Single SABR-II co-incubation, NFAT-GFP Jurkat. The experiment is classed as cell-based, mouse. The conditions noted are these: I-Ab SABR-II; 18-20 h.
Text: as §1

The test system of a further experiment is Jurkat cells, No TCR. Briefly: Single SABR-II co-incubation, background without TCR. The conditions noted are these: No TCR, Ext. Data Fig. 6C, 18-20 hr. In kind it is cell-based, human. In short, it runs like this:
(§2)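 Single SABR-II constructs for putative cognate epitopes were expressed in CellTrace Violet-labelled NFAT–GFP Jurkat cells and co-incubated 1:1 (5 × 10^5 each) with TCR-expressing Jurkat cells for 16–20 h. GFP (with CD69 staining when indicated) was measured by flow cytometry. Wells with GFP above the no-TCR control were scored positive.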

In a further experiment the test system is TCR2. Briefly: Single SABR-II co-incubation, NFAT-GFP Jurkat. The experiment is classed as cell-based, mouse. The conditions noted are these: TCR 2, Ext. Data Fig. 6C, 18-20 hr. In short, it runs like this: as §2

ATEGRVRVNSAYQDK: in the experiment with 5-4-E8 TCR, the “GFP and CD69 expression in SABR-II-expressing NFAT-GFP Jurkat cells (in words)” value is “Robust GFP and CD69 expression”.

ISQAVHAAHAEINEAGR [Ova]: the “GFP and CD69 expression in SABR-II-expressing NFAT-GFP Jurkat cells (in words)” value in the experiment on OT-II TCR was “Robust GFP and CD69 expression”.

Regarding RQNGVLNSWTDQD, the “%GFP+CD69+ cells of SABR-NFAT-GFP-Jurkat cells” value with Jurkat cells, No TCR (technical replicate 1) was 1.51%; in the experiment on Jurkat cells, No TCR (technical replicate 2), 1.42%; in the experiment on TCR2 (technical replicate 1), 1.56%; in the experiment with TCR2 (technical replicate 2), 1.62%.
